Data reported in ChEMBL document CHEMBL3580650, “Synthesis and Initial in Vivo Studies with [(11)C]SB-216763: The First Radiolabeled Brain Penetrative Inhibitor of GSK-3” (ACS Med Chem Lett, 2015).

Legend:
[1] = tested on: Brain; experiment: Drug uptake in brain of Wistar rat at 48.8 MBq, iv administered as bolus dose for 30 secs measured at 3 mins post wash out by MicroPET image analysis; format: ADME, organism-based; conditions: in vivo, 0.05 h
[2] = tested on: Brain; experiment: Drug uptake in brain of rhesus monkey at 89 +/- 3 MBq, iv administered as bolus dose for 1 min measured at 5 mins post wash out by MicroPET image analysis; format: ADME, organism-based, Macaca mulatta; conditions: in vivo
[3] = tested on: Striatum; experiment: Drug uptake in striatum of Wistar rat brain at 48.8 MBq, iv administered as bolus dose for 30 secs measured over 120 mins post injection by MicroPET image analysis; format: ADME, organism-based; conditions: in vivo
[4] = tested on: Thalamus; experiment: Drug uptake in thalamus of Wistar rat brain at 48.8 MBq, iv administered as bolus dose for 30 secs measured over 120 mins post injection by MicroPET image analysis; format: ADME, organism-based; conditions: in vivo
[5] = tested on: Cortex; experiment: Drug uptake in cortex of Wistar rat brain at 48.8 MBq, iv administered as bolus dose for 30 secs measured over 120 mins post injection by MicroPET image analysis; format: ADME, organism-based; conditions: in vivo
[6] = tested on: Cerebellum; experiment: Drug uptake in cerebellum of Wistar rat brain at 48.8 MBq, iv administered as bolus dose for 30 secs measured over 120 mins post injection by MicroPET image analysis; format: ADME, organism-based; conditions: in vivo
[7] = Drug uptake in thalamus of rhesus monkey brain at 89 +/- 3 MBq, iv administered as bolus dose for 1 min measured over 90 mins post injection by MicroPET image analysis; format: ADME, organism-based, Macaca mulatta; conditions: in vivo
[8] = tested on: Striatum; experiment: Drug uptake in striatum of rhesus monkey brain at 89 +/- 3 MBq, iv administered as bolus dose for 1 min measured over 90 mins post injection by MicroPET image analysis; format: ADME, organism-based, Macaca mulatta; conditions: in vivo
[9] = Drug uptake in cortex of rhesus monkey brain at 89 +/- 3 MBq, iv administered as bolus dose for 1 min measured over 90 mins post injection by MicroPET image analysis; format: ADME, organism-based, Macaca mulatta; conditions: in vivo
[10] = Drug uptake in cerebellum of rhesus monkey brain at 89 +/- 3 MBq, iv administered as bolus dose for 1 min measured over 90 mins post injection by MicroPET image analysis; format: ADME, organism-based, Macaca mulatta; conditions: in vivo

[11CH3]n1cc(C2=C(c3ccc(Cl)cc3Cl)C(=O)NC2=O)c2ccccc21
Active: Drug uptake [3] | Drug uptake [4] | Drug uptake [5] | Drug uptake [6] | Drug uptake [7] | Drug uptake [8] | Drug uptake [9] | Drug uptake [10]
2.5: SUV [1]
1.9: SUV [2]
